{"source": "patent US9695155B2", "about": "“Herbicidal substituted pyrimidinyloxy benzene compounds” (E. I. DU PONT DE NEMOURS AND COMPANY, priority 2013, dated 2017)", "key": {"blackgrass": {"test_system": "blackgrass", "test": "Test A postemergence", "format": "in vivo, Alopecurus myosuroides", "settings": "0 to 100 scale where 0 is no effect and 100 is complete control", "method_in_brief": "(§1)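 Compounds in non-phytotoxic solvent with surfactant applied as soil spray preemergence, or postemergence to plants 2-10 cm at one- to two-leaf stage, in loam/sand. After approximately 10 days in greenhouse, injury rated visually versus untreated controls, 0 (no effect) to 100 (complete control).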"}, "ducksalad": {"test_system": "ducksalad", "test": "Test C flooded paddy test", "format": "in vivo, Heteranthera limosa", "settings": "Flood, scale 0 to 100 (0 no effect, 100 complete control), 13 to 15 days", "method_in_brief": "(§2)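 Test compounds are applied straight into paddy water held 3 cm above the soil surface, with that flood maintained for the whole test. After 13 to 15 days in the greenhouse, each species is scored visually relative to controls.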"}, "palmer pigweed": {"test_system": "palmer pigweed", "test": "Test E preemergence", "format": "in vivo, Amaranthus palmeri", "settings": "for Pigweed, Palmer plant response rating: scale 0 to 100 (0 no effect, 100 complete control); for Plant response rating, Pigweed, Palmer: scale 0 to 100, 0 no effect, 100 complete control", "method_in_brief": "(§3)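 Compound in a non-phytotoxic solvent mixture with surfactant was applied preemergence to seeds in silt loam soil, or postemergence to plants 2 to 18 cm tall grown in peat-based potting medium. Plants were kept in a greenhouse for 14 to 21 days, then rated visually against untreated controls on a 0 (no effect) to 100 (complete control) scale.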"}, "yellow nutsedge": {"test_system": "yellow nutsedge", "test": "Test E preemergence", "format": "in vivo, Cyperus esculentus", "settings": "for Nutsedge, Yellow plant response rating: scale 0 to 100 (0 no effect, 100 complete control); for Plant response rating, Nutsedge, Yellow: scale 0 to 100, 0 no effect, 100 complete control", "method_in_brief": "as §3"}, "ragweed [1]": {"test_system": "ragweed", "test": "Test A preemergence", "format": "in vivo, Ambrosia elatior", "method_in_brief": "as §1"}, "rice": {"test_system": "rice", "test": "Test C flooded paddy test", "format": "in vivo, Oryza sativa", "settings": "Flood, scale 0 to 100 (0 no effect, 100 complete control), 13 to 15 days", "method_in_brief": "as §2"}, "fall panicum": {"test_system": "fall panicum", "test": "Test E preemergence", "format": "in vivo, Panicum dichotomiflorum", "settings": "for Panicum, Fall plant response rating: scale 0 to 100 (0 no effect, 100 complete control); for Plant response rating, Panicum, Fall: scale 0 to 100, 0 no effect, 100 complete control", "method_in_brief": "as §3"}, "ragweed [2]": {"test_system": "ragweed", "test": "Test E preemergence", "format": "in vivo, Ambrosia elatior", "settings": "for Ragweed plant response rating: scale 0 to 100 (0 no effect, 100 complete control); for Plant response rating, Ragweed: scale 0 to 100, 0 no effect, 100 complete control", "method_in_brief": "as §3"}, "green foxtail": {"test_system": "green foxtail", "test": "Test E preemergence", "format": "in vivo, Setaria viridis", "settings": "for Foxtail, Green plant response rating: scale 0 to 100 (0 no effect, 100 complete control); for Plant response rating, Foxtail, Green: scale 0 to 100, 0 no effect, 100 complete control", "method_in_brief": "as §3"}, "wild poinsettia": {"test_system": "wild poinsettia", "test": "Test E preemergence", "format": "in vivo, Euphorbia heterophylla", "settings": "for Poinsettia, Wild plant response rating: scale 0 to 100 (0 no effect, 100 complete control); for Plant response rating, Poinsettia, Wild: scale 0 to 100, 0 no effect, 100 complete control", "method_in_brief": "as §3"}, "Italian ryegrass [3]": {"test_system": "Italian ryegrass", "test": "Test A preemergence", "format": "in vivo, Lolium multiflorum", "method_in_brief": "as §1"}, "Italian ryegrass [4]": {"test_system": "Italian ryegrass", "test": "Test A postemergence", "format": "in vivo, Lolium multiflorum", "settings": "0 to 100 scale where 0 is no effect and 100 is complete control", "method_in_brief": "as §1"}, "soybean": {"test_system": "soybean", "test": "Test E preemergence", "format": "in vivo, Glycine max", "settings": "for Plant response rating, Soybean: scale 0 to 100, 0 no effect, 100 complete control", "method_in_brief": "as §3"}, "sandbur": {"test_system": "sandbur", "test": "Test E preemergence", "format": "in vivo, Cenchrus echinatus", "settings": "for Sandbur plant response rating: scale 0 to 100 (0 no effect, 100 complete control); for Plant response rating, Sandbur: scale 0 to 100, 0 no effect, 100 complete control", "method_in_brief": "as §3"}, "dayflower": {"test_system": "dayflower", "test": "Test E preemergence", "format": "in vivo, Commelina virginica", "settings": "for Dayflower, VA plant response rating: scale 0 to 100 (0 no effect, 100 complete control); for Plant response rating, Dayflower, VA: scale 0 to 100, 0 no effect, 100 complete control", "method_in_brief": "as §3"}, "[5]": {"settings": "125 g ai/ha, 0 to 100 scale where 0 is no effect and 100 is complete control"}, "[6]": {"settings": "500 g ai/ha, 0 to 100 scale, 0 no effect, 100 complete control, approx. 10 days"}}, "data": [{"molecule": "CCOc1cnn(-c2c(C#N)cccc2Oc2ncc(F)cn2)c1", "note": "[Compound 89]", "values": [{"measurement": "Plant response rating, Blackgrass", "setting": "blackgrass; 125 g ai/ha", "result": 40}, {"measurement": "Plant response rating, Blackgrass", "setting": "blackgrass; 500 g ai/ha", "result": 90}, {"measurement": "Plant response rating, Ducksalad", "setting": "ducksalad; 62 g ai/ha", "result": 0}, {"measurement": "Plant response rating, Ducksalad", "setting": "ducksalad; 125 g ai/ha", "result": 65}, {"measurement": "Plant response rating, Ducksalad", "setting": "ducksalad; 250 g ai/ha", "result": 80}, {"measurement": "Pigweed, Palmer plant response rating", "setting": "palmer pigweed; 31 g ai/ha", "result": 0}, {"measurement": "Pigweed, Palmer plant response rating", "setting": "palmer pigweed; 62 g ai/ha", "result": 0}, {"measurement": "Plant response rating, Pigweed, Palmer", "setting": "palmer pigweed; 125 g ai/ha", "result": 40}, {"measurement": "Plant response rating, Pigweed, Palmer", "setting": "palmer pigweed; 250 g ai/ha", "result": 100}, {"measurement": "Nutsedge, Yellow plant response rating", "setting": "yellow nutsedge; 31 g ai/ha", "result": 0}, {"measurement": "Nutsedge, Yellow plant response rating", "setting": "yellow nutsedge; 62 g ai/ha", "result": 0}, {"measurement": "Plant response rating, Nutsedge, Yellow", "setting": "yellow nutsedge; 125 g ai/ha", "result": 20}, {"measurement": "Plant response rating, Nutsedge, Yellow", "setting": "yellow nutsedge; 250 g ai/ha", "result": 35}, {"measurement": "Plant response rating, Ragweed", "setting": "ragweed [1]; [5]", "result": 50}, {"measurement": "Ragweed plant response rating", "setting": "ragweed [1]; [6]", "result": 70}, {"measurement": "Plant response rating, Rice", "setting": "rice; 62 g ai/ha", "result": 0}, {"measurement": "Plant response rating, Rice", "setting": "rice; 125 g ai/ha", "result": 0}, {"measurement": "Plant response rating, Rice", "setting": "rice; 250 g ai/ha", "result": 0}, {"measurement": "Panicum, Fall plant response rating", "setting": "fall panicum; 31 g ai/ha", "result": 0}, {"measurement": "Panicum, Fall plant response rating", "setting": "fall panicum; 62 g ai/ha", "result": 65}, {"measurement": "Plant response rating, Panicum, Fall", "setting": "fall panicum; 125 g ai/ha", "result": 100}, {"measurement": "Plant response rating, Panicum, Fall", "setting": "fall panicum; 250 g ai/ha", "result": 100}, {"measurement": "Ragweed plant response rating", "setting": "ragweed [2]; 31 g ai/ha", "result": 65}, {"measurement": "Ragweed plant response rating", "setting": "ragweed [2]; 62 g ai/ha", "result": 80}, {"measurement": "Plant response rating, Ragweed", "setting": "ragweed [2]; 125 g ai/ha", "result": 80}, {"measurement": "Plant response rating, Ragweed", "setting": "ragweed [2]; 250 g ai/ha", "result": 90}, {"measurement": "Foxtail, Green plant response rating", "setting": "green foxtail; 31 g ai/ha", "result": 0}, {"measurement": "Foxtail, Green plant response rating", "setting": "green foxtail; 62 g ai/ha", "result": 35}, {"measurement": "Plant response rating, Foxtail, Green", "setting": "green foxtail; 125 g ai/ha", "result": 65}, {"measurement": "Plant response rating, Foxtail, Green", "setting": "green foxtail; 250 g ai/ha", "result": 85}, {"measurement": "Poinsettia, Wild plant response rating", "setting": "wild poinsettia; 31 g ai/ha", "result": 20}, {"measurement": "Poinsettia, Wild plant response rating", "setting": "wild poinsettia; 62 g ai/ha", "result": 40}, {"measurement": "Plant response rating, Poinsettia, Wild", "setting": "wild poinsettia; 125 g ai/ha", "result": 70}, {"measurement": "Plant response rating, Poinsettia, Wild", "setting": "wild poinsettia; 250 g ai/ha", "result": 85}, {"measurement": "Plant response rating, Ryegrass, Italian", "setting": "Italian ryegrass [3]; [5]", "result": 0}, {"measurement": "Ryegrass, Italian plant response rating", "setting": "Italian ryegrass [3]; [6]", "result": 10}, {"measurement": "Plant response rating, Ryegrass, Italian", "setting": "Italian ryegrass [4]; 125 g ai/ha", "result": 0}, {"measurement": "Plant response rating, Ryegrass, Italian", "setting": "Italian ryegrass [4]; 500 g ai/ha", "result": 90}, {"measurement": "Soybean plant response rating", "setting": "soybean; 62 g ai/ha, scale 0 to 100 (0 no effect, 100 complete control)", "result": 30}, {"measurement": "Plant response rating, Soybean", "setting": "soybean; 125 g ai/ha", "result": 60}, {"measurement": "Plant response rating, Soybean", "setting": "soybean; 250 g ai/ha", "result": 80}, {"measurement": "Sandbur plant response rating", "setting": "sandbur; 31 g ai/ha", "result": 0}, {"measurement": "Sandbur plant response rating", "setting": "sandbur; 62 g ai/ha", "result": 10}, {"measurement": "Plant response rating, Sandbur", "setting": "sandbur; 125 g ai/ha", "result": 10}, {"measurement": "Plant response rating, Sandbur", "setting": "sandbur; 250 g ai/ha", "result": 20}, {"measurement": "Dayflower, VA plant response rating", "setting": "dayflower; 31 g ai/ha", "result": 0}, {"measurement": "Dayflower, VA plant response rating", "setting": "dayflower; 62 g ai/ha", "result": 60}, {"measurement": "Plant response rating, Dayflower, VA", "setting": "dayflower; 125 g ai/ha", "result": 80}, {"measurement": "Plant response rating, Dayflower, VA", "setting": "dayflower; 250 g ai/ha", "result": 98}]}]}
